Test results published in ChEMBL document CHEMBL4304782, “Antioxidant, Anti-inflammatory, and Neuroprotective Effects of Novel Vinyl Sulfonate Compounds as Nrf2 Activator” (ACS Med Chem Lett, 2019).

Target: T1, Nuclear factor erythroid 2-related factor 2 (Homo sapiens, UniProt Q16236)
T1 sequence (Q16236 whole entry): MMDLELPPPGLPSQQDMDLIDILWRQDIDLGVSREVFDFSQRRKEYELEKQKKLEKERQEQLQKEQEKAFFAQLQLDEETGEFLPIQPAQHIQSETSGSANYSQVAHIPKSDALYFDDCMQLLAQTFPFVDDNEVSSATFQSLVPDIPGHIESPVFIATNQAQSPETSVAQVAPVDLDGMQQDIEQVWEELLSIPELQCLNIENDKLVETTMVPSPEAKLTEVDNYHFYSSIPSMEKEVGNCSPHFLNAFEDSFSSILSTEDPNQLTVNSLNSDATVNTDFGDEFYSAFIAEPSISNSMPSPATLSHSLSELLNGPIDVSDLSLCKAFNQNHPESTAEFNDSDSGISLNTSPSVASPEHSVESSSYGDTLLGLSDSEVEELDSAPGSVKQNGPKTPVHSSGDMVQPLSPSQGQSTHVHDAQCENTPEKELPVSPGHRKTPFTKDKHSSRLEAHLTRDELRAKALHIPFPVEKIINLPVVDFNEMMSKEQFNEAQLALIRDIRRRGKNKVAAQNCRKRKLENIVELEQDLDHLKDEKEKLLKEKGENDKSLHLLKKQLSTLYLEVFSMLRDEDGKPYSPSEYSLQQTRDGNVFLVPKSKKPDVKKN
Test: Activation of ED-tagged Nrf2 in human U2OS cells co-expressing Keap1 assessed as induction of NRF2 translocation to nucleus after 6 hrs by beta-galactosidase based chemiluminescent assay
Type: cell-based

SMILES | EC50
COc1ccc(OS(=O)(=O)/C=C/c2ccccc2)cc1 | 1.48 µM
COc1ccccc1NS(=O)(=O)/C=C/c1ccccc1Cl | 6.35 µM
